Drawing on the supplement of paper PMC11003180, this text covers drug sensitivity score for 38 compounds.

Assay in all cases: drug sensitivity score (DSS) from 5-dose viability curve (DSS (area-based score, 0 = no response)); higher = more sensitive (stronger viability inhibition); extreme values may be limits of the assay
Experiment [1] relates to MDCK p60AmotL2-inducible + doxycycline (p60AmotL2 expressing). Particulars: doxycycline: 10 ng/mL; 72 h. In a few lines:
(§1)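 After 72 h at 37 °C on 384-well plates pre-spotted with 528 oncology drugs at five doses (1-10,000 nM), parental and doxycycline-inducible MDCK cells were assessed; both lines had been given 10 ng/mL doxycycline in the medium before seeding at 2000 cells/well. Viability was taken from CellTiter-Glo luminescence scaled per plate to vehicle and positive controls, and drug sensitivity scores were derived from dose-response fits in the Breeze pipeline.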

The subject of experiment [2] is MDCK wild-type + doxycycline. Particulars: doxycycline: 10 ng/mL; 72 h. In a few lines: as §1
The test system of experiment [3] is MDCK wild-type - doxycycline. Particulars: doxycycline: none; 72 h. The procedure, abridged:
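An oncology library of 528 drugs was pre-spotted at five doses (1-10,000 nM) in 384-well plates, and parental MDCK cells without doxycycline were added at 2000 cells/well. The plates were kept at 37 °C for 72 h. Drug sensitivity scores were obtained by fitting dose-response curves in the Breeze pipeline to CellTiter-Glo viability readings scaled per plate between vehicle and positive controls.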

Take `N#CC(c1ccnc(OCc2ccc(CN3CCOCC3)cc2)n1)c1nc2ccccc2s1` (centres undefined) [Bentamapimod]: the figures for the drug sensitivity score in experiment [1], in experiment [2] and in experiment [3] were 2.1, 1.5 and 1.2, respectively.
With `C[C@]12C=CC(=O)C=C1CC[C@@H]1[C@@H]2[C@@H](O)C[C@@]2(C)[C@H]1CC[C@]2(O)C(=O)CO` [Prednisolone], the drug sensitivity score in experiment [1] is 0; in experiment [2], 0; in experiment [3] it was 1.2.
Take `CC1(C)CCC(CN2CCN(c3ccc(C(=O)NS(=O)(=O)c4ccc(NCC5CCOCC5)c([N+](=O)[O-])c4)c(Oc4cnc5[nH]ccc5c4)c3)CC2)=C(c2ccc(Cl)cc2)C1` [Venetoclax]: the drug sensitivity score in experiment [1], in experiment [2] and in experiment [3] was 0 throughout.
On to `CCOc1ccn(-c2ccc(F)cc2)c(=O)c1C(=O)Nc1ccc(Oc2ccnc(N)c2Cl)c(F)c1`, for which the drug sensitivity score in experiment [1], in experiment [2] and in experiment [3] was 0 in each case.
With `CONC(=O)c1ccccc1Nc1cc(Nc2cc(C)nn2C(C)C)ncc1Cl`, the drug sensitivity score in experiment [1] turned out to be 1.2; in experiment [2] it was 0; in experiment [3], 0.
For the compound `CN[C@@H]1C[C@H]2O[C@@](C)([C@@H]1OC)n1c3ccccc3c3c4c(c5c6ccccc6n2c5c31)C(=O)N[C@H]4O` [UCN-01], the drug sensitivity score in experiment [1] is 14.5; in experiment [2] it was 18.5; in experiment [3], 18.1.
Taken in the same sequence, the figures for `Cn1ncnc1[C@H]1c2n[nH]c(=O)c3cc(F)cc(c23)N[C@@H]1c1ccc(F)cc1` [Talazoparib] were 2.3, 0 and 0.
In the same order, the values of `CN(C(=O)c1ccc(F)cc1C(F)(F)F)C1CCN(c2nnc(-c3ccnn3C)c3ccccc23)CC1` [Taladegib] are 0, 0 and 0.
Taken in the same sequence, the figures for `C[C@H](Nc1ncnc2[nH]cnc12)c1cc2ccc(F)cc2nc1-c1ccccn1` [AMG319] were 0, 0 and 0.
Regarding `CC(=O)O[C@]1(C(C)=O)CC[C@H]2[C@@H]3C=C(C)C4=CC(=O)CC[C@]4(C)[C@H]3CC[C@@]21C` [Megestrol acetate], the drug sensitivity score in experiment [1], in experiment [2] and in experiment [3] was 0 in each case.
On to `CC(=O)N(O)CCCCCNC(=O)CCC(=O)N(O)CCCCCNC(=O)CCC(=O)N(O)CCCCCN` [Deferoxamine], for which the drug sensitivity score in experiment [1] was 5.1; in experiment [2] it was 3.9; in experiment [3] it was 3.3.
As for `Nc1cc(C(F)(F)F)c(-c2cc(N3CCOCC3)nc(N3CCOCC3)n2)cn1` [Buparlisib], the values for the drug sensitivity score in experiment [1], in experiment [2] and in experiment [3] were 6.3, 7 and 5.1, respectively.
Taken in the same sequence, the figures for `CC#CC(=O)N1CC[C@@H](n2c(=O)n(-c3ccc(Oc4ccccc4)cc3)c3c(N)ncnc32)C1` [Tirabrutinib] were 4, 0.8 and 0.
Taken in the same sequence, the figures for `CC(C)(O)CNc1nc(Nc2ccnc(C(F)(F)F)c2)nc(-c2cccc(C(F)(F)F)n2)n1` [Enasidenib] were 0, 0 and 0.
In the same order, the values of `NC(=O)N1CCC(CC(=O)N2CCC([C@H]3c4ncc(Br)cc4CCc4cc(Cl)cc(Br)c43)CC2)CC1` [Lonafarnib] are 14.6, 9.9 and 8.6.
As for `COc1ccc(CCc2nc3cc(-c4c(C)noc4C)ccc3n2C[C@H](C)N2CCOCC2)cc1Cl` [SGC-CBP30], the results for the drug sensitivity score in experiment [1], in experiment [2] and in experiment [3] were 4.3, 2.7 and 0, respectively.
In the same order, the values of `O=C(Nc1c[nH]nc1-c1nc2ccc(CN3CCOCC3)cc2[nH]1)NC1CC1` [AT9283] are 6.5, 2 and 0.
On to `Cc1ccc(-n2nc(C(C)(C)C)cc2NC(=O)Nc2ccc(OCCN3CCOCC3)c3ccccc23)cc1` [Doramapimod], for which the drug sensitivity score in experiment [1], in experiment [2] and in experiment [3] was 0 each time.
On to `O=C(Nc1cnn2ccc(N3CCC[C@@H]3c3cc(F)ccc3F)nc12)N1CC[C@H](O)C1` [Larotrectinib], for which the drug sensitivity score in experiment [1], in experiment [2] and in experiment [3] was 0 each time.
As to `O=C(c1cccc(Cl)c1F)N1CCN(Cc2cccc(Nc3nccs3)n2)CC1` [MK-8745], the figures for the drug sensitivity score in experiment [1], in experiment [2] and in experiment [3] were 12.4, 9.5 and 6.6, respectively.
In the case of `CN(C)Cc1c(C(=O)NCCOc2ccc(C(=O)NO)cc2)oc2ccccc12` [Abexinostat], the values for the drug sensitivity score in experiment [1], in experiment [2] and in experiment [3] were 18.8, 17.5 and 15.6, respectively.
Taken in the same sequence, the figures for `CC1(C)CC[C@]2(NC(=O)C(C)(F)F)CC[C@]3(C)[C@H](C(=O)C=C4[C@@]5(C)C=C(C#N)C(=O)C(C)(C)[C@@H]5CC[C@]43C)[C@@H]2C1` [Omaveloxolone] were 16.7, 16.3 and 17.
Taken in the same sequence, the figures for `Cc1cc(OCc2nnc(SC3CCCC3)n2-c2cccnc2)ccc1-c1ccc(S(C)(=O)=O)cc1` [NMS-873] were 14.7, 13.5 and 12.8.
Regarding `CC[C@]12C=CCN3CC[C@@]4(c5cc([C@@]6(C(=O)OC)C[C@@H]7C[C@@H](C(C)(F)F)CN(Cc8c6[nH]c6ccccc86)C7)c(OC)cc5N(C)[C@H]4[C@@](O)(C(=O)OC)[C@@H]1OC(C)=O)[C@@H]32` [Vinflunine], the values for the drug sensitivity score in experiment [1], in experiment [2] and in experiment [3] were 3.3, 3.7 and 4.3, respectively.
In the same order, the values of `COc1cc(OC)cc(N(CCNC(C)C)c2ccc3ncc(-c4cnn(C)c4)nc3c2)c1` [Erdafitinib] are 0, 0 and 0.
Taken in the same sequence, the figures for `NC(=O)c1cccc2cn(-c3ccc([C@@H]4CCCNC4)cc3)nc12` [Niraparib] were 2.1, 2.3 and 0.7.
In the same order, the values of `O=C(O)CC1CC(c2ccccc2)=NO1` (centres undefined) [VGX-1027] are 0, 0 and 0.
Take `CNC(=O)c1ccccc1Sc1ccc2c(/C=C/c3ccccn3)n[nH]c2c1` [Axitinib]: the drug sensitivity score in experiment [1] worked out at 5.7; in experiment [2] it was 0; in experiment [3], 0.
On to `Nc1ccn([C@@H]2O[C@H](CO)[C@@H](O)[C@@H]2O)c(=O)n1` [Cytarabine], for which the results for the drug sensitivity score in experiment [1], in experiment [2] and in experiment [3] were 4, 2.3 and 1.8, respectively.
Turning to `CNc1nc(Nc2cn(C(C)(C)C#N)nc2C)ncc1C(F)(F)F` [GNE-0877], the drug sensitivity score in experiment [1], in experiment [2] and in experiment [3] was 0 in each case.
With `CCCC(CCC)C(=O)O` [Valproic acid], the drug sensitivity score in experiment [1], in experiment [2] and in experiment [3] was 0 each time.
`Nc1cccc2c1CN(C1CCC(=O)NC1=O)C2=O` (centres undefined) [Lenalidomide]: the drug sensitivity score in experiment [1], in experiment [2] and in experiment [3] was 0 each time.
With `O=c1[nH]cc(F)c(=O)[nH]1` [Fluorouracil], the figures for the drug sensitivity score in experiment [1], in experiment [2] and in experiment [3] were 9.2, 9.7 and 8.6, respectively.
Turning to `COc1cc2c(NC3CCN(C(C)C)CC3)nc(C3CCCCC3)nc2cc1OCCCN1CCCC1` [UNC0638], the results for the drug sensitivity score in experiment [1], in experiment [2] and in experiment [3] were 5, 5.3 and 5.2, respectively.
Taken in the same sequence, the figures for `COc1c(C)cnc(Cn2cnc3c(Cl)nc(N)nc32)c1C` [BIIB021] were 20.6, 19.6 and 17.4.
Taken in the same sequence, the figures for `CC1(C)CNc2cc(NC(=O)c3cccnc3NCc3ccncc3)ccc21` [Motesanib] were 0, 0 and 0.
With `Clc1ccc(Nc2nnc(Cc3ccncc3)c3ccccc23)cc1` [Vatalanib], the drug sensitivity score in experiment [1], in experiment [2] and in experiment [3] was 0 each time.
Take `Cn1cc(C2=Nc3cc(NC(=O)C(N)C4CCCCC4)cc4c3C2=CNNC4=O)cn1` (centres undefined): the results for the drug sensitivity score in experiment [1], in experiment [2] and in experiment [3] were 1.1, 0 and 0, respectively.
